Results from patent US7294635B2 (Portola Pharmaceuticals, Inc., priority 2003, dated 2007).

Test system: ADP-induced human platelet aggregation
Experiment: Inhibition of ADP-mediated platelet aggregation in vitro using platelet-rich plasma (PRP assay)
Type: cell-based
Conditions: 5 min; human platelet-rich plasma, 2 μM ADP, 96-well microtiter, OD 650 nm at 5 min; read-out: Activity in the PRP assay
Procedure: This Example Provides an Assay for the Inhibition of ADP-Mediated Platelet Aggregation In Vitro Using Platelet-Rich Plasma (PRP)
Platelet-rich plasma (PRP) is prepared by centrifugation at 160×g for 20 minutes at room temperature. PRP is collected, and the platelet concentration is determined using a Coulter counter or hemocytometer (platelet concentration should be 2-4×10^8 platelets per mL).
Inhibition of ADP-dependent aggregation is preferably determined in 96-well flat-bottom microtiter plates using a microtiter plate shaker and plate reader similar to the procedure described by Frantantoni et al., Am. J. Clin. Pathol. […] All steps are performed at room temperature. The total reaction volume of 0.2 mL/well includes: PRP (˜6×10^7 total platelets in the presence of plasma), serial dilutions of test compounds (buffer for control wells) in 0.6% DMSO. After about 5 minutes preincubation at room temperature, ADP is added to a final concentration of 2 μM which induces submaximal aggregation. Buffer is added instead of ADP to one set of control wells (ADP-control). The OD of the samples is then determined at 650 nm using a microtiter plate reader (Softmax, Molecular Devices, Menlo Park, Calif.) resulting in the 0 minute reading. The plates are then agitated for 5 min on a microtiter plate shaker and the 5 minute reading is obtained in the plate reader. Aggregation is calculated from the decrease of OD at 650 nm at t=5 minutes compared to t=0 minutes and is expressed as % of the decrease in the ADP control samples after correcting for changes in the unaggregated control samples.

Row | Structure (SMILES) | IC50
1 | CNc1cc2ccn(-c3ccc(NC(=O)NS(=O)(=O)c4ccc(Cl)s4)cc3C(F)(F)F)c(=O)c2cc1F [Example 95, 5-chloro-N-({[4-[7-fluoro-6-(methylamino)-1-oxoisoquinolin-2(1H)-yl]-3-(trifluoromethyl)phenyl]amino}carbonyl)thiophene-2-sulfonamide] | > 30 µM
2 | CNc1cc2ccn(-c3ccc(NC(=O)NS(=O)(=O)c4ccc(Cl)s4)c(OCCOC)c3)c(=O)c2cc1F [Example 91, 5-chloro-N-({[4-[7-fluoro-6-(methylamino)-1-oxoisoquinolin-2(1H)-yl]-2-(2-methoxyethoxy)phenyl]amino}carbonyl)thiophene-2-sulfonamide] | < 10 µM
3 | CNc1cc2ccn(-c3ccc(NC(=O)NS(=O)(=O)c4ccc(Cl)s4)c(C)c3)c(=O)c2cc1F [Example 53, 5-chloro-N-[({4-[7-fluoro-6-(methylamino)-1-oxoisoquinolin-2(1H)-yl]-2-methylphenyl}amino)carbonyl]thiophene-2-sulfonamide] | < 10 µM
4 | CNc1cc2ccn(-c3ccc(NC(=O)NS(=O)(=O)c4cc(C)cs4)cc3)c(=O)c2cc1F [Example 38] | < 10 µM
5 | C#CCNc1cc2ccn(-c3ccc(NC(=O)NS(=O)(=O)c4ccc(Cl)s4)cc3)c(=O)c2cc1F [Example 22, 5-chloro-N-[({4-[7-fluoro-1-oxo-6-(prop-2-ynylamino)isoquinolin-2(1H)-yl]phenyl}amino)carbonyl]thiophene-2-sulfonamide] | < 10 µM
6 | CNc1cc2ccn(-c3ccc(NC(=O)NS(=O)(=O)c4ccc(Cl)s4)c(C(C)C)c3)c(=O)c2cc1F [Example 92, 5-chloro-N-[({4-[7-fluoro-6-(methylamino)-1-oxoisoquinolin-2(1H)-yl]-2-isopropylphenyl}amino)carbonyl]thiophene-2-sulfonamide] | 10 to 30 µM
7 | CNc1cc2ccn(-c3ccc(NC(=O)NS(=O)(=O)c4ccc(Cl)s4)cc3)c(=O)c2cc1F [Example 10, 5-chloro-N-[({4-[7-fluoro-6-(methylamino)-1-oxoisoquinolin-2(1H)-yl]phenyl}amino)carbonyl]thiophene-2-sulfonamide] | < 10 µM
8 | CNc1cc2ccn(-c3ccc(NC(=O)NS(=O)(=O)c4ccc(Cl)s4)cc3F)c(=O)c2cc1F [Example 49, 5-chloro-N-[({3-fluoro-4-[7-fluoro-6-(methylamino)-1-oxoisoquinolin-2(1H)-yl]phenyl}amino)carbonyl]thiophene-2-sulfonamide] | < 10 µM
9 | CNc1cc2ccn(-c3cnc(NC(=O)NS(=O)(=O)c4ccc(Cl)s4)nc3)c(=O)c2cc1F [Example 61, 5-chloro-N-[({5-[7-fluoro-6-(methylamino)-1-oxoisoquinolin-2(1H)-yl]pyrimidin-2-yl}amino)carbonyl]thiophene-2-sulfonamide] | < 10 µM
10 | O=C(Nc1ccc(-n2ccc3cc(NCC(F)(F)F)c(F)cc3c2=O)cc1)NS(=O)(=O)c1ccc(Cl)s1 [Example 21, 5-chloro-N-[({4-[7-fluoro-1-oxo-6-[(2,2,2-trifluoroethyl)amino]isoquinolin-2(1H)-yl]phenyl}amino)carbonyl]thiophene-2-sulfonamide] | 10 to 30 µM
11 | CCc1cc(-n2ccc3cc(NC)c(F)cc3c2=O)ccc1NC(=O)NS(=O)(=O)c1ccc(Cl)s1 [Example 81, 5-chloro-N-[({2-ethyl-4-[7-fluoro-6-(methylamino)-1-oxoisoquinolin-2(1H)-yl]phenyl}amino)carbonyl]thiophene-2-sulfonamide] | < 10 µM
12 | CNc1cc2ccn(-c3cc(C)c(NC(=O)NS(=O)(=O)c4ccc(Cl)s4)cn3)c(=O)c2cc1F [Example 56, 5-chloro-N-[({6-[7-fluoro-6-(methylamino)-1-oxoisoquinolin-2(1H)-yl]-4-methylpyridin-3-yl}amino)carbonyl]thiophene-2-sulfonamide] | < 10 µM
13 | CNc1cc2ccn(-c3ccc(NC(=O)NS(=O)(=O)c4ccc(Cl)s4)c(C(C)=O)c3)c(=O)c2cc1F [Example 88, N-[({2-acetyl-4-[7-fluoro-6-(methylamino)-1-oxoisoquinolin-2(1H)-yl]phenyl}amino)carbonyl]-5-chlorothiophene-2-sulfonamide] | < 10 µM
14 | CNc1cc2ccn(-c3ccc(NC(=O)NS(=O)(=O)c4ccc(Cl)s4)nc3)c(=O)c2cc1F [Example 59, 5-chloro-N-[({5-[7-fluoro-6-(methylamino)-1-oxoisoquinolin-2(1H)-yl]pyridin-2-yl}amino)carbonyl]thiophene-2-sulfonamide] | < 10 µM
15 | CNc1cc2ccn(-c3ccc(NC(=O)NS(=O)(=O)c4ccc(Cl)s4)cc3Br)c(=O)c2cc1F [Example 51, N-[({3-bromo-4-[7-fluoro-6-(methylamino)-1-oxoisoquinolin-2(1H)-yl]phenyl}amino)carbonyl]-5-chlorothiophene-2-sulfonamide] | < 10 µM
16 | CNc1cc2ccn(-c3ccc(NC(=O)NS(=O)(=O)c4ccc(Cl)s4)cc3C)c(=O)c2cc1F [Example 52, 5-chloro-N-[({4-[7-fluoro-6-(methylamino)-1-oxoisoquinolin-2(1H)-yl]-3-methylphenyl}amino)carbonyl]thiophene-2-sulfonamide] | < 10 µM
17 | CNc1cc2ccn(-c3cnc(NC(=O)NS(=O)(=O)c4ccc(Cl)s4)c(C)c3)c(=O)c2cc1F [Example 60, 5-chloro-N-[({5-[7-fluoro-6-(methylamino)-1-oxoisoquinolin-2(1H)-yl]-3-methylpyridin-2-yl}amino)carbonyl]thiophene-2-sulfonamide] | < 10 µM
18 | CNc1cc2ccn(-c3ccc(NC(=O)NS(=O)(=O)c4ccccc4)cc3)c(=O)c2cc1F [Example 42] | < 10 µM
19 | CNc1cc2ccn(-c3ccc(NC(=O)NS(=O)(=O)c4ccc(Cl)s4)c(C4CC4)c3)c(=O)c2cc1F [Example 94, 5-chloro-N-[({2-cyclopropyl-4-[7-fluoro-6-(methylamino)-1-oxoisoquinolin-2(1H)-yl]phenyl}amino)carbonyl]thiophene-2-sulfonamide] | < 10 µM
20 | CNc1cc2ccn(-c3ccc(NC(=O)NS(=O)(=O)c4ccc(Cl)s4)cc3C(C)=O)c(=O)c2cc1F [Example 70, N-[({3-acetyl-4-[7-fluoro-6-(methylamino)-1-oxoisoquinolin-2(1H)-yl]phenyl}amino)carbonyl]-5-chlorothiophene-2-sulfonamide] | 10 to 30 µM

Same assay, conditions: Homo sapiens, Platelet, 5 min, read-out: Activity in the PRP assay

Row | Structure (SMILES) | IC50
21 | CCNc1cc2ccn(-c3ccc(NC(=O)NS(=O)(=O)c4ccc(Cl)s4)cc3)c(=O)c2cc1F [Example 19, 5-chloro-N-[({4-[6-(ethylamino)-7-fluoro-1-oxoisoquinolin-2(1H)-yl]phenyl}amino)carbonyl]thiophene-2-sulfonamide] | < 10 µM
